Measurements taken from US7713970B2, “Substituted cyclic urea derivatives” (FMC Corporation, priority 2004, dated 2010).

Test system: tobacco budworm (Heliothis virescens [Fabricius])
Assay: surface-treated diet test against tobacco budworm
Assay type: in vivo
Conditions: 0.25 millimolar candidate insecticide on the surface of the diet, second instar larvae, five-day exposure; for Percent Mortality: compared to total number of insects infested; for Percent Growth Inhibition: inhibition of insect weight relative to untreated controls
Method: Candidate insecticides were evaluated for activity against the tobacco budworm (Heliothis virescens [Fabricius]) in a surface-treated diet test.
In this test one mL of molten (65-70° C.) wheat germ-based artificial diet was pipetted into each well of a four by six (24 well) multi-well plate (ID# 430345-15.5 mm dia.×17.6 mm deep; Corning Costar Corp., One Alewife Center, Cambridge, Mass. 02140). The diet was allowed to cool to ambient temperature before treatment with candidate insecticide.
For a determination of insecticidal activity, solutions of the candidate insecticides were prepared for testing using a Packard 204DT Multiprobe® Robotic System (Packard Instrument Company, 800 Research Parkway, Meriden, Conn. 06450), in which the robot first diluted a standard 50 millimolar DMSO solution of candidate insecticide with a 1:1 water/acetone solution (V/V) in a ratio of 1:7 stock solution to water/acetone. The robot subsequently pipetted 40 microliters of the so-prepared solution onto the surface of the diet in each of three wells in the 24 multi-well plate. The process was repeated with solutions of seven other candidate insecticides. Once treated, the contents of the multi-well plate were allowed to dry, leaving 0.25 millimoles of candidate insecticide on the surface of the diet, or a concentration of 0.25 millimolar. Appropriate untreated controls containing only DMSO on the diet surface were also included in this test.
For evaluations of the insecticidal activity of a candidate insecticide at varying rates of application, the test was established as described above using sub-multiples of the standard 50 millimolar DMSO solution of candidate insecticide. For example, the standard 50 millimolar solution was diluted by the robot with DMSO to give 5, 0.5, 0.05, 0.005, 0.0005 millimolar, or more dilute solutions of the candidate insecticide. In these evaluations there were six replicates of each rate of application placed on the surface of the diet in the 24 multi-well plate, for a total of four rates of application of candidate insecticide in each plate.
In each well of the test plate was placed one second instar tobacco budworm larvea, each weighing approximately five milligrams. After the larvae were placed in each well, the plate was sealed with clear polyfilm adhesive tape. The tape over each well was perforated to ensure an adequate air supply. The plates were then held in a growth chamber at 25° C. and 60% relative humidity for five days (light 14 hours/day).
After the five-day exposure period insecticidal activity for each rate of application of candidate insecticide was assessed as percent inhibition of insect weight relative to the weight of insects from untreated controls, and percent mortality when compared to the total number of insects infested.

| SMILES | Percent Mortality | Percent Growth Inhibition |
| --- | --- | --- |
| O=c1cnn(-c2cc(Cl)cc(Cl)c2)c(=O)n1CCCCOc1c(Cl)cc(OCC=C(Cl)Cl)cc1Cl [Compound 649] | 100% | 100% |
| Cc1nn(-c2ccc(S(=O)(=O)C(F)F)cc2)c(=O)n1CCCCOc1c(Cl)cc(OCC=C(Cl)Cl)cc1Cl [Compound 135] | 100% | 100% |
| O=c1n(CCCCOc2c(Cl)cc(OCC=C(Cl)Cl)cc2Cl)nnn1Cc1cccc(Cl)c1 [Compound 514] | 100% | 100% |
| N#Cc1ccc(-n2ncn(CCCCOc3c(Cl)cc(OCC=C(Cl)Cl)cc3Cl)c2=O)cc1 [Compound 89] | 100% | 100% |
| O=c1n(CCCCOc2c(Cl)cc(OCC=C(Cl)Cl)cc2Cl)nnn1Cc1cc(Cl)cc(Cl)c1 [Compound 521] | 100% | 100% |
| O=c1n(CCOc2c(Cl)cc(OCC=C(Cl)Cl)cc2Cl)nnn1Cc1ccccc1Cl [Compound 522] | 50% | 100% |
| Cc1ccc(-n2ncn(CCCCOc3c(Cl)cc(OCC=C(Cl)Cl)cc3Cl)c2=O)cc1C [Compound 99] | 100% | 100% |
| O=c1n(CCCCOc2c(Cl)cc(OCC=C(Cl)Cl)cc2Cl)cnn1-c1ccccc1Cl [Compound 92] | 100% | 100% |
| CC(C)(C)c1ccc(-n2ncn(CCCCOc3c(Cl)cc(OCC=C(Cl)Cl)cc3Cl)c2=O)cc1 [Compound 83] | 100% | 100% |
| O=c1n(CCCCOc2c(Cl)cc(OCC=C(Cl)Cl)cc2Cl)nnn1-c1ccc(Cl)cc1 [Compound 300] | 100% | 100% |
| O=c1n(CCCOc2c(Cl)cc(OCC=C(Cl)Cl)cc2Cl)cnn1-c1ccc(C(F)(F)F)cc1 [Compound 106] | 100% | 100% |
| O=c1n(CCCCOc2c(Cl)cc(OCC=C(Cl)Cl)cc2Cl)cnn1-c1ccc(Br)cc1 [Compound 104] | 100% | 100% |
| O=c1n(CCCCOc2c(Cl)cc(OCC=C(Cl)Cl)cc2Cl)cnn1-c1ccc(OC(F)(F)F)cc1 [Compound 97] | 100% | 100% |
| O=c1cnn(-c2ccc(Cl)cc2)c(=O)n1CCCCOc1c(Cl)cc(OCC=C(Cl)Cl)cc1Cl [Compound 651] | 100% | 100% |
| Cc1nn(-c2ccc(Cl)cc2)c(=O)n1CCCCOc1c(Cl)cc(OCC=C(Cl)Cl)cc1Cl [Compound 113] | 100% | 100% |
| O=c1n(CCCCOc2c(Cl)cc(OCC=C(Cl)Cl)cc2Cl)ccn1-c1ccc(Cl)cc1 [Compound 4] | 100% | 100% |
| O=c1n(CCCCOc2c(Cl)cc(OCC=C(Cl)Cl)cc2Cl)cnn1-c1ccccc1 [Compound 94] | 100% | 100% |
| O=c1cnn(-c2ccccc2Cl)c(=O)n1CCCCOc1c(Cl)cc(OCC=C(Cl)Cl)cc1Cl [Compound 652] | 100% | 100% |
| O=c1cnn(-c2ccc(Cl)c(Cl)c2)c(=O)n1CCCCOc1c(Cl)cc(OCC=C(Cl)Cl)cc1Cl [Compound 647] | 100% | 100% |
| O=c1n(CCCCOc2cc(Cl)c(OCC=C(Cl)Cl)c(Cl)c2)nnn1-c1cccc(Cl)c1 [Compound 661] | 100% | 100% |
| O=c1n(CCCCOc2c(Cl)cc(OCC=C(Cl)Cl)cc2Cl)nnn1-c1ccc(Cl)c(Cl)c1 [Compound 306] | 100% | 100% |
| O=c1n(CCCCOc2c(Cl)cc(OCC=C(Cl)Cl)cc2Cl)nnn1Cc1ccc(Cl)cc1 [Compound 515] | 100% | 100% |
